What was measured:
[1] = test system: AMN human patient-derived primary lymphocytes; experiment: Hexacosanoic acid (VLCFA) level in AMN patient-derived lymphocytes, LC-MS; format: cell-based
Experimental: (§1) In order to show the efficacy of PXL770 to lower very long chain fatty acids (VLCFA) in vitro, the study focuses on the level assessment of the hexacosanoic acid, which is the most prevalent VLCFA, in healthy control cells and in AMN human patient-derived primary lymphocytes. The cell lines were obtained from Coriell Cell Repositories. Lymphocytes were cultured in RPMI-1640 with 10% fetal bovine serum (FBS). The cultures were split in 1:5 ratio. Lymphocytes from healthy patients were used as control. All treatments were in complete media containing fetal bovine serum (FBS, 15%). All cultured cells were maintained at 37° C. in 5% CO2.
(§2) VLCFA content was then measured as follows. Samples are adjusted to a final volume of 0.5-1 ml with LC-MS grade water and spiked with 10 ng of Lignoceric acid-d4 as an internal standard. The sample is acidified to pH 3-4 with dilute hydrochloric acid and extracted with isooctane-ethyl acetate (9:1) three times with equal volume. The extract is dried under nitrogen and the residue is reconstituted in methanol-water-ammonium acetate (75:25:10 mM).
Total fatty acids: After preparing the samples with internal standard as described above for free fatty acids, aqueous sodium hydroxide is added to a final concentration of 1 M. The mixture is incubated at 37° C. in dark under nitrogen for 3 h. […]
LC-MS analysis of fatty acids: The reconstituted fatty acid extracts are subjected to HPLC on Targa C8 column (2×10 mm) using methanol-aqueous ammonium acetate (10 mM) solvent mixture. […] The column eluent is directly introduced to mass analyzer (QTRAP5500) and monitored for fatty acids using published pseudo MRM method. […] Each fatty acid is quantitated against the added internal standard.
First, the evolution of hexacosanoic acid in lymphocytes is monitored in healthy control cells and in AMN human patient-derived primary lymphocytes; and in a second time a treatment of PXL770 was assigned to AMN human-derived primary lymphocytes in culture at different concentrations (5 μM, 10 μM, 25 μM, 50 μM) for one week and the level of hexacosanoic acid was measured. […]

[2] = test system: ABCD2; experiment: Western blot of ABCD2 expression in ALD-KO mouse brain cortex mixed glial cells; format: cell-based; conditions: vs non-treated, FIG. 4
Experimental: The cells were washed with cold Tris-buffered saline (20 mM Trizma base and 137 mM NaCl, pH 7.5) and lysed in 1×SDS sample-loading buffer (62.5 mM Trizma base, 2% [w/v] SDS, 10% glycerol), and after sonication and centrifugation at 15,000 g for 5 min, the supernatant was used for the immunoblot assay. The protein concentration of samples was determined with the detergent compatible protein assay reagent (Bio-Rad) using BSA as the standard. The sample was boiled for 3 min with 0.1 volumes of 10% β mercaptoethanol and 0.5% bromphenol blue mix. Then, 40 μg of total cellular protein was resolved by electrophoresis on 8 or 12% polyacrylamide gels, electrotransferred and blocked with Tween 20-containing Tris-buffered saline (TBST; 10 mM Trizma base, pH 7.4, 1% Tween 20, and 150 mM NaCl) with 5% skim milk. After incubation with antibodies against ABCD2, ABCD3, and (β-actin at 4^0 overnight, the membranes were then washed with TBST and incubated with horseradish peroxidase-conjugated anti-rabbit or mouse IgG for 1 h at room temperature. The membranes were detected by autoradiography using ECL-plus (Amersham Biosciences) after washing with TBST buffer.
The same experimental protocol as in example 4 was performed for ALD-KO mouse brain cortex mixed glial cells. This model is mainly a model for AMN. […]

[3] = test system: AMN human patient-derived primary fibroblasts; experiment: Hexacosanoic acid (VLCFA) level in AMN patient-derived fibroblasts, LC-MS; format: cell-based
Experimental: as §1, with “compare” for “show”, “PXL770 and metformin” for “PXL770”, “fibroblasts.” for “lymphocytes.”, “Fibroblasts” for “Lymphocytes”, “DMEM” for “RPMI-1640”, “15% FBS.” for “10% fetal bovine serum (FBS).”
as §2
Total fatty acids: After preparing the samples with internal standard as described above for free fatty acids, aqueous sodium hydroxide is added to a final concentration of 1 M. The mixture is incubated at 37° C. in dark under nitrogen for 3 h. The samples are then acidified, extracted, and reconstituted as described above.
LC-MS analysis of fatty acids: The reconstituted fatty acid extracts are subjected to HPLC on Targa C8 column (2×10 mm) using methanol-aqueous ammonium acetate (10 mM) solvent mixture. The column is eluted with a gradient of methanol (75 to 90%) over 8 min at a flow rate of 0.25 ml/min. The column eluent is directly introduced to mass analyzer (QTRAP5500) and monitored for fatty acids using published pseudo MRM method. Under these conditions, the VLCFA elute between 5 and 8 min. Each fatty acid is quantitated against the added internal standard.
The study planned different groups of patients. First, the evolution of hexacosanoic acid in fibroblasts is monitored in healthy control cells and in AMN human patient-derived primary fibroblasts; and in a second time a treatment of PXL770 was assigned to AMN human-derived primary fibroblasts in culture at different doses (PXL770: 0.1, 0.5, 1, 2, 3.5 and 5 μM; metformin: 100, 200, 300 and 400 μM) for one week and the level of hexacosanoic acid was measured.
The experiment described in Example 3 was reproduced with various thienopyridone compounds, namely: • PXL770: potassium 2-chloro-3-(5-hydroxytetralin-6-yl)-6-oxo-5-phenyl-7H-thieno[2,3-b]pyridin-4-olate • PXL700: 2-chloro-4-hydroxy-3-indan-5-yl-5-(3-pyridyl)-7H-thieno[2,3-b]pyridin-6-one • PXL702: 2-chloro-4-hydroxy-3-(4-hydroxyindan-5-yl)-5-phenyl-7H-thieno[2,3-b]pyridin-6-one • PXL695: 2-chloro-5-(3-fluorophenyl)-4-hydroxy-3-(4-hydroxyindan-5-yl)-7H-thieno[2,3-b]pyridin-6-one, • each tested at concentrations from 0.1 to 5 μM.
A one-way ANOVA with Dunnett's multiple comparison test was performed to assess the effect of PXL770 on brain's VLCFAs (**** p<0.0001, *** p<0.001). A Kruskal-Wallis test with Dunn's multiple comparison test was performed to assess the effect of PXL770 on plasma's VLCFAs (**** p<0.0001, […]).

[4] = test system: ABCD1-KO mice; experiment: In vivo X-ALD mouse, 90 days: VLCFA (C26:0) in spinal cord; conditions: male ABCD1-KO mice, 75 mg/kg oral gavage twice a day, FIG. 13
Experimental: Male ABCD1-KO mice (n=8) were treated with oral gavage of PXL770 (75 mg/kg) twice a day, every day for 90 days. Untreated ABCD1-KO mice (n=8) and wild-type (WT) mice (n=8) served as controls. Post-treatment mice were sacrificed and spinal cord was collected for VLCFA analysis. The analysis was performed according to the standardized protocols of the Lipidomics Core Facility and data are expressed as VLCFA μg/ml levels. Hexacosanoic acid (C26:0) was selected as representative for VLCFAs.

SMILES: O=c1[nH]c2sc(Cl)c(-c3ccc4c(c3O)CCCC4)c2c([O-])c1-c1ccccc1.[K+] [PXL770, monohydrate potassium salt of 2-chloro-4-hydroxy-3-(5-hydroxytetralin-6-yl)-5-phenyl-7H-thieno[2,3-b]pyridin-6-one]
- level of hexacosanoic acid ([1]; AMN lymphocytes, all doses tested (5, 10, 25, 50 μM), one week, FIG. 1): strongly decreases
- level of hexacosanoic acid compared to healthy controls ([1]; AMN lymphocytes, doses of 5 and 50 μM, one week, FIG. 1): same level as that present in lymphocytes of healthy controls
- VLCFA content, normalization ([1]; AMN patient cells, 5 μM): normalization effect
- expression of ABCD2 (Western blot) [2]: overexpression
- potency and efficacy compared to metformin ([3]; AMN fibroblasts, PXL770 0.1-5 μM vs metformin 100-400 μM, one week, FIG. 10): much higher potency and efficacy
- level of hexacosanoic acid ([3]; AMN fibroblasts, increasing doses 0.1-5 μM, one week, FIG. 10): decreases
- VLCFA levels ([3]; AMN patient-derived fibroblasts, concentrations from 0.1 to 5 μM, FIG. 14): comparable decrease
- VLCFA accumulation in the spinal cord [4]: significantly reduces

Reference: patent US11850238B2, “Use of a thienopyridone derivative in the treatment of adrenoleukodystrophy or adrenomyeloneuropathy” (POXEL, priority 2020, dated 2023)
